From patent US11142530B2, “Deep-sea fungus-derived anthraquinone compound and use thereof in preparing anti-allergic drugs” (Third Institute of Oceanography, Ministry of Natural …, priority 2019, dated 2021) come the findings set out here.

Read-outs that look alike come from different tables or passages of the source.

This assay deals with RBL-2H3 cells. Put plainly: IgE-mediated RBL-2H3 cell degranulation model (β-hexosaminidase release), in vitro anti-allergic activity test. The assay is classed as cell-based. Particulars: for Degranulation efficiency (%): RBL-2H3 cells, anti-DNP-IgE sensitized, DNP-BSA stimulated. The text has this:
Currently available mast cell lines are not suitable for in vitro subculturing, and thus it is difficult to obtain a large number of homogeneous cells for experimental research. The RBL-2H3 cell line is similar to mast cells in cell structure and degranulation mechanism, and more importantly, it is possible to realize a stable subculturing of the line. Thus, the RBL-2H3 cell line is usually used as an alternative model of mast cells in the studies on mast cell functions and further researches of allergic diseases.
In the present embodiment, an IgE-mediated RBL-2H3 cell model was employed to measure the degranulation efficiency of sensitized cells, followed by a calculation to obtain the inhibitory of the compound against the cell degranulation and to further obtain the anti-allergic activity of the compound.
This embodiment was conducted with the following four groups:
(1) negative control group (non-activated group);
(2) blank control group (DNP-BSA-activated group);
(3) positive control group (loratadine group); and
(4) compound group (the compound obtained in step (5) in Embodiment 1).
This embodiment was conducted as follows:
(1) Sensitizing the cells: The RBL-2H3 cells were collected with trypsinization, and added into 96-well plates, 100 μL in each well, followed by the addition of anti-DNP-IgE to a final concentration of 1 μg/mL to sensitize the cells, and incubated in an incubator overnight (37° C., 5% CO2).
(2) Pre-protection of the cells: In the negative control group, 5, μL of PBS and 95 μL of Tyrode's buffer solution were added to each sample. In the blank control group, 5 μL of DNP-BSA and 95 μL of Tyrode's buffer solution were added to each sample. In the positive control group, 5 μL of loratadine (of various concentrations) and 95 μL of Tyrode's buffer solution were added to each sample. In the compound group, 5 μL of the compound solution (in PBS, with a final concentration of 1.25, 0. 625, 0.3125, 0.15625, 0.078125, or 0.0390625 μg/mL) and 95 μL of Tyrode's buffer solution were added to each sample. After the addition of above reagents, 95 μL of the cells were then added to culture plates, and incubated for 1 hour.
(3) Stimulating the cells: In the negative control group, 5 μL of PBS was added to each sample. In the other three groups, 5 μL of DNP-BSA was added to a final concentration of 1 μg/mL to stimulate the RBL-2H3 cells, and incubated for 1 hour.
(4) Disintegration of the cells: The culture supernatants were collected, and then the Tyrode's buffer solution (containing 0.1% of Triton X-100) was added to the culture plates to disintegrate the cells so as to obtain lysate solutions.
(5) β-hexosaminidase activity measurement: The supernatants and the lysate solutions were added to 96-well plates for fluorescent assays, 25 μL in each well, followed by the addition of 100 μL of 1.2 mM 4-methylumbelliferyl-N-acetyl-β-d-glucosaminide to allow reaction at 37° C. for 30 minutes. Then the fluorescence (excitation wavelength: 360 nm, emission wavelength: 450 nm) of the solution in each well was measured using a microplate reader.
(6) Calculation of degranulation efficiency:
Degranulation efficiency was calculated through the following expression:
wherein, FS represent the fluorescence of supernatant, and FL represents the fluorescence of lysate solution.
(7) Calculation of inhibitory rate on allergy
Inhibitory rate was calculated with the following expression:
wherein DEB represents the degranulation efficiency of blank control group, DEC represents the degranulation efficiency of compound group and DEN represents the degranulation efficiency of negative control group.

[1] abbreviates: Rattus norvegicus, RBL-2H3, read-out: Inhibitory rate (%).

Consider `COc1cc(O)cc2c1C(=O)c1c(cc3c(c1O)C1C=COC1O3)C2=O` (stereo not drawn) [Compound], for which, for the setting “IgE-mediated RBL-2H3 cell model, result in words”, the “inhibitory effect on mast cell degranulation” value is listed as “strong inhibitory effect”. In addition, the “Degranulation efficiency (%)” value (compound 0.0390625 μg/mL) is listed as 52.86%; the “Degranulation efficiency (%)” value (compound 0.078125 μg/mL) came to 48.53%; the “Degranulation efficiency (%)” value (compound 0.15625 μg/mL) amounted to 38.46%; the “Degranulation efficiency (%)” value (compound 0.3125 μg/mL) came out at 35.61%; the “Degranulation efficiency (%)” value (compound 0.625 μg/mL) is recorded as 24.46%; the “Degranulation efficiency (%)” value (compound 1.25 μg/mL) is recorded as 14.29%. This compound also yielded an IC50 (Rattus norvegicus, RBL-2H3) of 1.87 µM. Besides, the inhibition at 0.0390625 µg/mL under setting [1] is -15.2%. Moreover, the inhibition at 0.078125 µg/mL under setting [1] was -3.38%. Under setting [1], the inhibition at 0.15625 µg/mL came to 24.2%. Besides, under setting [1], the inhibition at 0.3125 µg/mL amounted to 32.1%. Moreover, the inhibition at 0.625 µg/mL under setting [1] was 62.7%. For the same compound, the inhibition at 1.25 µg/mL under setting [1] was 90.6%.
For `CCOC(=O)N1CCC(=C2c3ccc(Cl)cc3CCc3cccnc32)CC1` [loratadine, reference compound], the IC50 (Rattus norvegicus, concentration of the compound when the inhibitory rate is 50%, RBL-2H3 degranulation, read-out: IC50) came to 91.6 µM.

The IC50 is the concentration needed to halve the response being measured.
